Values quoted from earlier work, collected in US20070112055A1, “Crystalline forms of almotriptan and processes for their preparation” (Glenmark Pharmaceuticals Limited, priority 2005, published 2007).

Tests used:
[1] = amorphous form compared with the crystalline forms
5-HT1D receptors = 5-HT1D receptors (Homo sapiens, UniProt P28221); settings: general statement of the related art
5-HT1B receptors = 5-HT1B receptors (Homo sapiens, UniProt P28222); settings: general statement of the related art
5-HT1F receptors = target: T1, 5-HT1F receptors (Homo sapiens, UniProt P30939); settings: general statement of the related art
T1 sequence (P30939 1-366): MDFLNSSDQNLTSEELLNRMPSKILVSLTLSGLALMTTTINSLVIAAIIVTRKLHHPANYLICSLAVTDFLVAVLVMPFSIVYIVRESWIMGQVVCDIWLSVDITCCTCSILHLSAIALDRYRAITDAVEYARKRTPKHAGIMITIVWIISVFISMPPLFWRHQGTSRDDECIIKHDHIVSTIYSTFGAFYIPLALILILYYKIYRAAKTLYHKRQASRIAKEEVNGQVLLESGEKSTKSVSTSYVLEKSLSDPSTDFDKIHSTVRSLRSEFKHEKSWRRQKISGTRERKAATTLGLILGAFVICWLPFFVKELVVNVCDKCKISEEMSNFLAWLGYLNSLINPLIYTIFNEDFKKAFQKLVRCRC

5-HT1A receptors = target: T2, 5-HT1A receptors (Homo sapiens, UniProt P08908); settings: general statement of the related art
T2 sequence (P08908 1-422): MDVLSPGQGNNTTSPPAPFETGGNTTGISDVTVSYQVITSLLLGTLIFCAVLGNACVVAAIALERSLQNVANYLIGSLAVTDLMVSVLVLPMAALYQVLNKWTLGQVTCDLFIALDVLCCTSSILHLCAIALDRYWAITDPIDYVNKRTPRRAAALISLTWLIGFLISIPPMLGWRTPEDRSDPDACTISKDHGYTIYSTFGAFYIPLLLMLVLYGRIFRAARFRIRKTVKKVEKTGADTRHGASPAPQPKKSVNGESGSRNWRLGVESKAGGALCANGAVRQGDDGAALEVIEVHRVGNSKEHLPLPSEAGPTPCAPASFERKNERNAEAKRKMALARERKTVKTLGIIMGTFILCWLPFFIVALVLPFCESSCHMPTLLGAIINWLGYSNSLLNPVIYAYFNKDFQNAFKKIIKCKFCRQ

5-HT7 receptors = 5-HT7 receptors (Homo sapiens, UniProt P34969); settings: general statement of the related art
Sequence of 5-HT7 receptors (P34969 whole entry): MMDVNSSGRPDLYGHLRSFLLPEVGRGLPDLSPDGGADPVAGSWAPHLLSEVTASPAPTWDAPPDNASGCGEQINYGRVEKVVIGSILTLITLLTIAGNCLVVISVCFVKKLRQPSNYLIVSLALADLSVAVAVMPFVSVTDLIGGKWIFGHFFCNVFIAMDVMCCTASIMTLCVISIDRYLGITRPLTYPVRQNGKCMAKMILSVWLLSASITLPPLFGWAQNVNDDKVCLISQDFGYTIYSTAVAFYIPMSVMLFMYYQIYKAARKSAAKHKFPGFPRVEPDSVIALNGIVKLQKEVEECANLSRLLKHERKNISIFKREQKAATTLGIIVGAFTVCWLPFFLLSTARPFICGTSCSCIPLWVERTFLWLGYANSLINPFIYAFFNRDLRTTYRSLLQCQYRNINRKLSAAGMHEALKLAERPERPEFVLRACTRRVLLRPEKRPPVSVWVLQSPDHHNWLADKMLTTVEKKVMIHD

Sequence of 5-HT1D receptors (P28221 whole entry): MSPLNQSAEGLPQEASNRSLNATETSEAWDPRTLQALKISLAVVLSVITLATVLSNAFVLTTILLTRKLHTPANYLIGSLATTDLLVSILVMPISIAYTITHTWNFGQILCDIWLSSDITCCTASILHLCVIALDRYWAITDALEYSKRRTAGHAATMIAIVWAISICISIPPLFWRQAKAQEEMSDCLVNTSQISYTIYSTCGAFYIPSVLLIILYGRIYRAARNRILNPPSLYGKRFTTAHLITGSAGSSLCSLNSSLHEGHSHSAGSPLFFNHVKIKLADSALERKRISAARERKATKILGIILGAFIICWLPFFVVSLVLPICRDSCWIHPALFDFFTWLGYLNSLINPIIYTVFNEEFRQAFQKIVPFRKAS
Sequence of 5-HT1B receptors (P28222 whole entry): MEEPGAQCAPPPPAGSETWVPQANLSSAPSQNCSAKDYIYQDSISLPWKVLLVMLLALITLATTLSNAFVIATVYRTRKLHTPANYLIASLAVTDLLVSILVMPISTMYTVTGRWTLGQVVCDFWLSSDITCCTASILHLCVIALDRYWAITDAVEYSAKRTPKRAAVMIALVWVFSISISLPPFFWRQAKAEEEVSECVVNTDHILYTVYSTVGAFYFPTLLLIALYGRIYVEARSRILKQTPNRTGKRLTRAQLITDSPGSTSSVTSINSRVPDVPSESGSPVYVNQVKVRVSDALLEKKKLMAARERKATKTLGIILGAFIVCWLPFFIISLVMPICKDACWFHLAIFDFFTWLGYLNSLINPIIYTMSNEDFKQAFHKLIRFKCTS

| affinity to 5-HT1D receptors (5-HT1D receptors) | affinity to 5-HT1B receptors (5-HT1B receptors) | affinity to 5-HT1F receptors (5-HT1F receptors) | affinity for 5-HT1A receptors (5-HT1A receptors) | affinity for 5-HT7 receptors (5-HT7 receptors) | Compound | bioavailability [1] |
| --- | --- | --- | --- | --- | --- | --- |
|  |  |  |  |  | CO/N=C(\C(=O)N[C@@H]1C(=O)N2C(C(=O)OC(C)OC(C)=O)=C(COC(N)=O)CS[C@H]12)c1ccco1 (stereo partly drawn) [cefuroxime axietil] | much higher bioavailability than the crystalline forms |
| high affinity | high affinity | high affinity | weak affinity | weak affinity | CN(C)CCc1c[nH]c2ccc(CS(=O)(=O)N3CCCC3)cc12 [Almotriptan, 1-[[[3-[2-(dimethylamino)ethyl]indol-5-yl]methyl]sulfonyl]pyrrolidine] |  |
